Values quoted from earlier work as cited in patent US20210267985A1, “COMPOSITIONS AND METHODS FOR INDUCING ENHANCED BRAIN FUNCTION” (priority 2020, published 2021).

Details: in vivo

Cn1c(=O)c2c(ncn2C)n(C)c1=O [caffeine]
half-life: 4 to 6 h
